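Protocol summary: plate cells (96-well), add compound at 5 concentrations, incubate 48 h, interpolate endpoints linearly. Abbreviation: GI50, concentration required for 50% inhibition of growth. TGI: concentration producing complete growth inhibition.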
How the values were obtained:
Assay in all cases: NCI tumour cell line growth inhibition, 48 h
CCRF-CEM leukemia = tested on: CCRF-CEM leukemia
SK-MEL-28 melanoma = tested on: SK-MEL-28 melanoma
LOX IMVI melanoma = tested on: LOX IMVI melanoma
OVCAR-8 ovarian = tested on: OVCAR-8 ovarian
SF-539 CNS = tested on: SF-539 CNS
RXF 393 renal = tested on: RXF 393 renal
SR leukemia = tested on: SR leukemia
T-47D breast = tested on: T-47D breast
NCI-H522 lung = tested on: NCI-H522 lung
OVCAR-4 ovarian = tested on: OVCAR-4 ovarian
UO-31 renal = tested on: UO-31 renal
SNB-75 CNS = tested on: SNB-75 CNS
DU-145 prostate = tested on: DU-145 prostate
786-0 renal = tested on: 786-0 renal
RPMI-8226 leukemia = tested on: RPMI-8226 leukemia
HCT-15 colon = tested on: HCT-15 colon
HCC-2998 colon = tested on: HCC-2998 colon
ACHN renal = tested on: ACHN renal
KM12 colon = tested on: KM12 colon
OVCAR-3 ovarian = tested on: OVCAR-3 ovarian
HT29 colon = tested on: HT29 colon
MDA-MB-435 = tested on: MDA-MB-435
SK-MEL-5 melanoma = tested on: SK-MEL-5 melanoma
SW-620 colon = tested on: SW-620 colon
HOP-62 NSCLC = tested on: HOP-62 NSCLC
NCI/ADR-RES ovarian = tested on: NCI/ADR-RES ovarian
NCI-H23 lung = tested on: NCI-H23 lung
A498 renal = tested on: A498 renal
U251 CNS = tested on: U251 CNS

N=C1C(c2nc3ccccc3s2)=C(O)CN1c1ccc(F)c(Cl)c1
TGI (CCRF-CEM leukemia): > 100 µM
GI50 (SK-MEL-28 melanoma): 33.3 µM
TGI (SK-MEL-28 melanoma): > 100 µM
GI50 (LOX IMVI melanoma): 20.3 µM
TGI (LOX IMVI melanoma): > 100 µM
GI50 (OVCAR-8 ovarian): 12.6 µM
TGI (OVCAR-8 ovarian): 33.4 µM
GI50 (SF-539 CNS): 8.36 µM
TGI (SF-539 CNS): 30.9 µM
GI50 (RXF 393 renal): 7.38 µM
TGI (RXF 393 renal): 33.9 µM
GI50 (SR leukemia): 0.666 µM
TGI (SR leukemia): 6.33 µM
GI50 (T-47D breast): 72.5 µM
TGI (T-47D breast): > 100 µM
GI50 (NCI-H522 lung): 11.5 µM
TGI (NCI-H522 lung): 63.2 µM
GI50 (OVCAR-4 ovarian): 20.5 µM
TGI (OVCAR-4 ovarian): > 100 µM
GI50 (UO-31 renal): 14.7 µM
TGI (UO-31 renal): 35.8 µM
GI50 (SNB-75 CNS): 13 µM
TGI (SNB-75 CNS): 51.4 µM
GI50 (DU-145 prostate): 36.1 µM
TGI (DU-145 prostate): > 100 µM
GI50 (786-0 renal): 22.7 µM
TGI (786-0 renal): 57.1 µM
GI50 (RPMI-8226 leukemia): 18.9 µM
TGI (RPMI-8226 leukemia): > 100 µM
GI50 (HCT-15 colon): 0.999 µM
TGI (HCT-15 colon): > 100 µM
GI50 (HCC-2998 colon): 61.7 µM
TGI (HCC-2998 colon): > 100 µM
GI50 (ACHN renal): 17.4 µM
TGI (ACHN renal): 57.8 µM
GI50 (KM12 colon): 73.9 µM
TGI (KM12 colon): > 100 µM
GI50 (OVCAR-3 ovarian): 17.7 µM
TGI (OVCAR-3 ovarian): 60.4 µM
GI50 (HT29 colon): 28.9 µM
TGI (HT29 colon): > 100 µM
GI50 (MDA-MB-435): 61.9 µM
TGI (MDA-MB-435): > 100 µM
GI50 (SK-MEL-5 melanoma): 14.6 µM
TGI (SK-MEL-5 melanoma): 49.5 µM
GI50 (SW-620 colon): 58.7 µM
TGI (SW-620 colon): > 100 µM
GI50 (HOP-62 NSCLC): 18.1 µM
TGI (HOP-62 NSCLC): 36.2 µM
GI50 (NCI/ADR-RES ovarian): 26.9 µM
TGI (NCI/ADR-RES ovarian): 80.6 µM
GI50 (NCI-H23 lung): 34.8 µM
TGI (NCI-H23 lung): > 100 µM
GI50 (A498 renal): 31.2 µM
TGI (A498 renal): 73.2 µM
GI50 (U251 CNS): 5.76 µM
TGI (U251 CNS): 23.2 µM

Source: PubChem BioAssay (NCI)
